Data as given in patent US12144786B2 (priority 2020, dated 2024).
Ends that are not written are not given here.

Key:
chronic anorexia nervosa = assay: Case study: ketogenic diet followed by IV ketamine infusions in a patient with chronic anorexia nervosa; format: in vivo, human
patients = conditions: usually; rarely longer than 2 hours; cited from earlier work
healthy volunteers = conditions: 80-minute infusion of 0.4 or 0.8 mg/kg, 3 days later; cited from earlier work
[1] = up to 4 doses of 0.1-0.5 mg/kg IV over 2 weeks, 8-month follow-up; cited from earlier work
[2] = test system: patients with eating disorders; conditions: 10-hour infusions of 20 mg/hour; cited from earlier work
[3] = 10 4-hour infusions of up to 20 mg/hour; cited from earlier work
[4] = test system: patients treated for depression; conditions: 6630 patients, six or more repeated parenteral infusions for depression; cited from earlier work
[5] = in vivo; cited from earlier work
[6] = in vivo; cited from earlier work; remark: listed apart in the source
[7] = test system: animal models of brain injury and stroke; conditions: cited from earlier work
[8] = in vivo; cited from earlier work; remark: listed apart in the source
[9] = test system: rodent models of depression; conditions: cited from earlier work
[10] = in vivo, cited from earlier work

CNC1(c2ccccc2Cl)CCCCC1=O (racemic) [ketamine, (RS)-2-(2-chlorophenyl)-2-(methylamino)cyclohexanone]
onset of effect on anorexic thoughts (AN voice) after first infusion (chronic anorexia nervosa; 40-minute IV infusion 0.75 mg/kg (42.68 mg) after 3 months on ketogenic diet, moderate ketosis for 14 days): Within one hour, they felt the AN voice was weakening
anorexia symptoms by the end of treatment (chronic anorexia nervosa; four infusions over 15 days (0.75, 1.0, 1.1, 1.2 mg/kg) on ketogenic diet): they no longer felt anorexic any more
compulsive exercise by the end of treatment (chronic anorexia nervosa; four infusions over 15 days on ketogenic diet): They could exercise and stop exercising at their own wish
BMI (chronic anorexia nervosa; throughout the treatment (duration 15 days) and months after): ~20.8
duration of dissociative symptoms (patients): less than 60 minutes
residual effects (healthy volunteers): does not result in any residual effects
adverse events [1]: no adverse events
side effects (headache, nausea, sedation, revival of distant memories) [2]: no longer occurred after the first infusion or were no longer seen as unpleasant
patients experiencing restlessness, headaches, or significant heart rate increases [3]: 7-13%
patients with a side effect that led to discontinuation of treatment [4]: 0.7%

N[C@@]1(c2ccccc2Cl)CCC[C@@H](O)C1=O [(2R,6R)-HNK]
hypnotic effect [5]: non-hypnotic
role in antidepressant effects of ketamine [5]: essential for the antidepressant effects of ketamine

CN[C@@]1(c2ccccc2Cl)CCCCC1=O [(R)-ketamine]
antidepressant effects and psychotomimetic side effects [6]: rapid-onset and sustained antidepressant effects without psychotomimetic side effects

C[C@@H]([C@@H](O)c1ccc(O)cc1)N1CCC(O)(c2ccccc2)CC1 [CP-101,606]
protection [7]: protective

Cc1ncc2n1-c1ccc(Cl)cc1C(c1ccccc1F)=NC2 [Midazolam]
half-life (t½) [8]: 2.5 h

C[C@@H](CN1CCC(Cc2ccccc2)CC1)[C@@H](O)c1ccc(O)cc1 [Ro 25-6981]
antidepressant actions [9]: rapid antidepressant actions

Thr-Pro-Pro-Thr-NH2 (TPPT-NH2) [Rapastinel, amidated tetrapeptide, NMDA receptor glycine site partial agonist]
oral activity ([10]; po): not active orally
blood brain barrier crossing [10]: rapidly crosses the blood brain barrier
